Legend:
Assay in all cases: competitive isoTOP-ABPP, MDA-MB-231 soluble proteome
Assay type in all cases: binding
HPCA = target: T1, HPCA (Homo sapiens, UniProt P84074); conditions: 100 μM LDE, 60 min; peptide LLQC*DPSSASQF
T1 construct: directly in native proteomes; endogenous in cells; host or cells: MDA-MB-231

TNRC5 = target: T2, TNRC5 (Homo sapiens, UniProt Q9BT09); conditions: 100 μM LDE, 60 min; peptide QC*DVLVEEFEEVIEDWYR
T2 construct: directly in native proteomes; endogenous in cells; host or cells: MDA-MB-231
T2 sequence (Q9BT09 31-278): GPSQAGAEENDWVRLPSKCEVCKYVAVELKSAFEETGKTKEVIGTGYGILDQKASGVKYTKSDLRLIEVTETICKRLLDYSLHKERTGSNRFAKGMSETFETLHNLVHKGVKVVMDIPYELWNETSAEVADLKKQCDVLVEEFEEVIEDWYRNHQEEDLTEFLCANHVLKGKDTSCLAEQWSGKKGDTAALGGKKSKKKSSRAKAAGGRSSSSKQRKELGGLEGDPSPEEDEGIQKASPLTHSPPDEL

CCT8 = target: T3, CCT8 (Homo sapiens, UniProt P50990); conditions: 100 μM LDE, 60 min; peptide IAVYSC*PFDGMITETK
T3 construct: directly in native proteomes; endogenous in cells; host or cells: MDA-MB-231
T3 sequence (P50990 1-548): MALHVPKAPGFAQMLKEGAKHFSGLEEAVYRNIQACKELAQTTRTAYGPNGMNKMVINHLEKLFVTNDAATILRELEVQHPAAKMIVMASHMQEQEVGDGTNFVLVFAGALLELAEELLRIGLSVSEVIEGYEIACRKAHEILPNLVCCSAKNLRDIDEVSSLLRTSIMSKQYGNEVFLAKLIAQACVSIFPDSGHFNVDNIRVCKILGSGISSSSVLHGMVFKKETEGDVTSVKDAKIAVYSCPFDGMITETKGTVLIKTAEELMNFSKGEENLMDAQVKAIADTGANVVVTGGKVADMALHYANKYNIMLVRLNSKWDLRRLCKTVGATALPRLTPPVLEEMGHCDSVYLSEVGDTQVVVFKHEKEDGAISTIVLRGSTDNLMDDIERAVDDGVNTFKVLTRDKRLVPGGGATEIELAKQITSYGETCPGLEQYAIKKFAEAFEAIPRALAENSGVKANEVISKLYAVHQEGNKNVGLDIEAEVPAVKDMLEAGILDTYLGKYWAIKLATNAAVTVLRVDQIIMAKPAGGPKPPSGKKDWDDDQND

CHRAC1 = target: T4, CHRAC1 (Homo sapiens, UniProt Q9NRG0); conditions: 100 μM LDE, 60 min; peptide ATELFVQC*LATYSYR
T4 construct: directly in native proteomes; endogenous in cells; host or cells: MDA-MB-231
T4 sequence (Q9NRG0 1-131): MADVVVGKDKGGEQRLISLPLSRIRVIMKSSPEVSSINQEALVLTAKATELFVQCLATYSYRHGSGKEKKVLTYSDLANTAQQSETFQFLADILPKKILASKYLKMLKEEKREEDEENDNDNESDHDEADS

SMILES: CCCCCC(O)/C=C/C=O (stereo not drawn) [4-HNE, 4-Hydroxynonenal]
- R value (isoTOP-ABPP ratio heavy/light) for IA-labeled cysteine of HPCA (HPCA): 2.17
- R value (isoTOP-ABPP ratio heavy/light) for IA-labeled cysteine of TNRC5 (TNRC5): 1.29
- R value (isoTOP-ABPP ratio heavy/light) for IA-labeled cysteine of CCT8 (CCT8): 1.14
- R value (isoTOP-ABPP ratio heavy/light) for IA-labeled cysteine of CHRAC1 (CHRAC1): 1.94

SMILES: CCCCCCCCCCCCC/C=C/C=O [2-HD, 2-trans-hexadecenal]
- R value (isoTOP-ABPP ratio heavy/light) for IA-labeled cysteine of HPCA (HPCA): 1.13
- R value (isoTOP-ABPP ratio heavy/light) for IA-labeled cysteine of TNRC5 (TNRC5): 1.06
- R value (isoTOP-ABPP ratio heavy/light) for IA-labeled cysteine of CCT8 (CCT8): 1.06
- R value (isoTOP-ABPP ratio heavy/light) for IA-labeled cysteine of CHRAC1 (CHRAC1): 1.06

SMILES: CCCCC/C=C/C=C1/C(=O)C=C[C@@H]1C/C=C\CCCC(=O)O [PGJ2, 15-deoxy-Δ12,14-prostaglandin J2]
- R value (isoTOP-ABPP ratio heavy/light) for IA-labeled cysteine of HPCA (HPCA): 7.21
- R value (isoTOP-ABPP ratio heavy/light) for IA-labeled cysteine of TNRC5 (TNRC5): 11.77
- R value (isoTOP-ABPP ratio heavy/light) for IA-labeled cysteine of CCT8 (CCT8): 7.75
- R value (isoTOP-ABPP ratio heavy/light) for IA-labeled cysteine of CHRAC1 (CHRAC1): 12.32

Reference: patent US10782295B2, “Cysteine-reactive ligand discovery in proteomes” (THE SCRIPPS RESEARCH INSTITUTE, priority 2013, dated 2020)
